The results in this text go back to PMC2928300, “Transcriptional Regulation of Human and Rat Hepatic Lipid Metabolism by the Grapefruit Flavonoid Naringenin: Role of PPARα, PPARγ and LXRα” (PLoS ONE, 2010).

For experiment [1], the target named is T1, LXRα (Homo sapiens, UniProt Q13133).
T1 construct: gene NR1H3
T1 sequence (Q13133 209-447 limits assumed): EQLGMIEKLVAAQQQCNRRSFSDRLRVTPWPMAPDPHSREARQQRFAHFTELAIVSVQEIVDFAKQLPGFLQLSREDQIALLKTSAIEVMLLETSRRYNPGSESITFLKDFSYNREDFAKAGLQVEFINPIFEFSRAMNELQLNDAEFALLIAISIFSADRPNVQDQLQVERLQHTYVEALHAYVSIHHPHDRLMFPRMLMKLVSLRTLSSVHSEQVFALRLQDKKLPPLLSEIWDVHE
Put plainly: LanthaScreen TR-FRET coactivator recruitment, purified LBD (EC80 measured in this assay). The format is binding. For orientation: In TR-FRET formats the signal depends on donor and acceptor labels being close together.

Experiment [2] addresses T1, LXRα. Put plainly: LanthaScreen TR-FRET coactivator recruitment, agonist and antagonist modes, purified LBD; supported by GAL4-LBD reporter. The format is biochemical.
The target of another experiment is T2, PPARγ (Homo sapiens, UniProt P37231).
T2 construct: gene PPARG; GAL4(1–147)-PPARγ LBD fusion
T2 sequence (P37231 231-505 limits assumed): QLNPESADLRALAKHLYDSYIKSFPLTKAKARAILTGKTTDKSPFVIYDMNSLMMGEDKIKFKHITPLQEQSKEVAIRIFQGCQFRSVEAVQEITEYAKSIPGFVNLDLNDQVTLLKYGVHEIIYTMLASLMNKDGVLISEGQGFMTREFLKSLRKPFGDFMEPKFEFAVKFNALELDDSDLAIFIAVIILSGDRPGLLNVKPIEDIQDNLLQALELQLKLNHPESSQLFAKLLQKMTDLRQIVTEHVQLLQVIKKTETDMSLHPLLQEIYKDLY
Put plainly: GAL4-PPARγ LBD luciferase reporter in HG5LN (HeLa) cells. The format is cell-based. The settings on record: read-out: % activation at 80 μM. A general note: A reporter such as luciferase makes a cellular process visible.

Experiment [3] has as its target recombinant LXRα ligand-binding domain, GST-tagged. The experiment is described as follows: FRET or BRET; LanthaScreen TR-FRET coactivator assay, cell-free, antagonist mode: GST-LXRα LBD, fluorescein Trap220 peptide, TO901317 at its EC80 in all wells (250 nM by methods and legend, 1 µM by the results text), increasing naringenin.
Experiment [4] has the same target. The experiment is described as follows: FRET or BRET; LanthaScreen TR-FRET coactivator assay, cell-free, agonist mode: GST-LXRα LBD labelled by terbium anti-GST antibody, fluorescein Trap220 peptide, increasing naringenin; percent activation compared to maximal activation of positive control (TO901317).

In the case of `O=S(=O)(c1ccccc1)N(CC(F)(F)F)c1ccc(C(O)(C(F)(F)F)C(F)(F)F)cc1` [TO901317], the “LanthaScreen TR-FRET coactivator recruitment, purified LBD (EC80 measured in thi)” value at LXRα [1] is given as 250 nM.
For the compound `O=C1C[C@@H](c2ccc(O)cc2)Oc2cc(O)cc(O)c21` [naringenin], the “% activation” value on LXRα [2] is given as 38.0±2.8 % activation. The Emax at 80 µM on PPARγ is 57 ± 0.3%.
With “fluorescein-labeled Trap 220/Drip-2 co-activator peptide”, in experiment [3], the percent inhibition of binding by 133 µM naringenin in the presence of 1 µM TO901317 was 11.6% and the percent inhibition of the TR-FRET signal by 133 µM naringenin with 250 nM TO901317 came to 15%. For the same compound, in experiment [4], the percent activation of TR-FRET signal with naringenin, relative to TO901317 stood at 38%.
